Experimental data: US12522598B2, “3-(2-(heteroaryl)-pyridin-4-yl)-5-(trifluoromethyl)-1,2,4-oxadiazole derivatives as HDAC6 inhibitors” (ORYZON GENOMICS, S.A., priority 2019, dated 2026)
Counter-ions that a name gives are not always drawn.

Target: T1, HDAC6 (Homo sapiens, UniProt Q9UBN7)
T1 construct: purchased BPS Bioscience 50006
T1 sequence (Q9UBN7 1-1215): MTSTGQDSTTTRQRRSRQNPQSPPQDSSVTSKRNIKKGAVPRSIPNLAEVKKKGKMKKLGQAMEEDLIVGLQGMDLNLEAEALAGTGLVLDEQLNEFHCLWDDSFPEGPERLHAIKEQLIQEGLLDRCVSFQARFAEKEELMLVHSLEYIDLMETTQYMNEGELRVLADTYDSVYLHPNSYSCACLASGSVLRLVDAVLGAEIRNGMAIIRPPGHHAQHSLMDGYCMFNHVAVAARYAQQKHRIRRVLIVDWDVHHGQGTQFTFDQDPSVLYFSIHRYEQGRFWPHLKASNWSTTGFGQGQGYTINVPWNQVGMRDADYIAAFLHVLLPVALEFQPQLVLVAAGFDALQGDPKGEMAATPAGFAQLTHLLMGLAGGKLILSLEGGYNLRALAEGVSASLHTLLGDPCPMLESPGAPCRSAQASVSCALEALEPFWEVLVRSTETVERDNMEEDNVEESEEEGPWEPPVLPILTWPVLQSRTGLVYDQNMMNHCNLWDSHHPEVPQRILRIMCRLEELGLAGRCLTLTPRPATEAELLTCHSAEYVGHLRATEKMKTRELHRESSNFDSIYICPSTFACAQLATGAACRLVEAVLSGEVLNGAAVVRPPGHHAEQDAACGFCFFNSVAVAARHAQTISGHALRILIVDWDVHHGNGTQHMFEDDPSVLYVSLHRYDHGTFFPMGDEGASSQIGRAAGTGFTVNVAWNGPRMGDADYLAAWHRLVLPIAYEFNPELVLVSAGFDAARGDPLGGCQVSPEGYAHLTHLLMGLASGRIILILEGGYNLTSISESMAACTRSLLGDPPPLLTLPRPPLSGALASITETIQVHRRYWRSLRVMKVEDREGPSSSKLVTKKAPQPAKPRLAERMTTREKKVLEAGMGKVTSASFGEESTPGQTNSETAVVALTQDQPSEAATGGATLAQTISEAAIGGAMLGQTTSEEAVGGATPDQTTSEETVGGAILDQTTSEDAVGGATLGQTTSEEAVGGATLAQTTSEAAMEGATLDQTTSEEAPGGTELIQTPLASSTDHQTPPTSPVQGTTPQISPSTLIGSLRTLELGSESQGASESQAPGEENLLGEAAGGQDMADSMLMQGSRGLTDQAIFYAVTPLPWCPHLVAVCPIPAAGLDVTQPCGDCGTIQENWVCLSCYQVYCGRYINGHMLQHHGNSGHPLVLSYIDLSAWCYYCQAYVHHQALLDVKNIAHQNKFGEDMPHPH
Assay: HDAC6 enzyme inhibition assay (fluorimetric)
Type: biochemical
Conditions: 3 hours preincubation with enzyme, fraction of positive control; for inhibition at 0.1 µM / HDAC6 % inh @ 0.1 μM: 0.1 μM test compound; for inhibition at 0.1 µM: read-out: HDAC6 % inh @ 0.1 μM; for inhibition at 0.3 µM / HDAC6 % inh @ 0.3 μM: 0.3 μM test compound; for inhibition at 0.3 µM: read-out: HDAC6 % inh @ 0.3 μM; for inhibition at 1 µM: read-out: HDAC6 % inh @ 1 μM
Experimental: A fluorimetric assay was used to determine the biochemical activity of the inhibitors on HDAC6 in 96-Well Half Area Black Microplates (Corning #3686)+TopSeal-A Black Sealing Film (Perkin Elmer #6050173). Test compounds were dissolved in DMSO. Half-log serial dilutions of test compounds were prepared in DMSO and then diluted 1:10 in assay buffer (BPS Bioscience #50031).
2.5 μL of enzyme (BPS Bioscience #50006) was incubated with 2.5 μL of test compounds for 3 hours in assay buffer with 0.1 mg/mL Bovine Serum Albumin (Sigma-Aldrich #A7030) at 21° C. in 22.5 μL total volume. The enzymatic reaction was started with the addition of 2.5 μL of a fluorogenic acetylated peptide substrate (BPS Bioscience #50037). The final concentration of enzyme and substrate in the reaction were 8.8 nM and 9 μM, respectively. After 45 minutes of incubation at 37° C., the addition of 25 μL of a development solution (BPS
Bioscience #50030) releases a fluorophore whose amount is proportional to the amount of the deacetylated product. Fluorescence intensity was measured after 15 minutes incubation at 21° C. with a Tecan Infinite F200 microplate reader (excitation 360 nm-emission 460 nm).
The negative control (background) was represented by the reaction mix in the absence of the enzyme (with 0.1% DMSO), while the positive control of deacetylase activity was obtained in the absence of test compounds (with 0.1% DMSO) after background subtraction. Percentage of inhibition was calculated as a fraction of the positive control.

SMILES	inhibition at 0.1 µM [%]	inhibition at 0.3 µM [%]	inhibition at 1 µM (1 μM test compound) [%]	HDAC6 % inh @ 0.1 μM [%]	HDAC6 % inh @ 0.3 μM [%]	HDAC6 % inh @ 1 μM (1 μM test compound) [%]
CN(CCO)C(=O)c1cc2cc(-c3cc(-c4noc(C(F)(F)F)n4)ccn3)ncc2n1C [Example 1b, N-(2-Hydroxyethyl)-N,1-dimethyl-5-(4-(5-(trifluoromethyl)-1,2,4-oxadiazol-3-yl)pyridin-2-yl)-1H-pyrrolo[2,3-c]pyridine-2-carboxamide]	72	88	95			
FC(F)(F)c1nc(-c2ccnc(-c3nn(CC4CCOCC4)c4cccnc34)c2)no1 [Example 1f, 3-(2-(1-((Tetrahydro-2H-pyran-4-yl)methyl)-1H-pyrazolo[4,3-b]pyridin-3-yl)pyridin-4-yl)-5-(trifluoromethyl)-1,2,4-oxadiazole]	54	81	94			
CN(C)CCCN(C)C(=O)c1cc2cc(-c3cc(-c4noc(C(F)(F)F)n4)ccn3)ncc2n1C [Example 1a, N-(3-(Dimethylamino)propyl)-N,1-dimethyl-5-(4-(5-(trifluoromethyl)-1,2,4-oxadiazol-3-yl)pyridin-2-yl)-1H-pyrrolo[2,3-c]pyridine-2-carboxamide]	74	91				
Cn1c(C(=O)N2CCOCC2)cc2cc(-c3cc(-c4noc(C(F)(F)F)n4)ccn3)ncc21 [Example 1, (1-Methyl-5-(4-(5-(trifluoromethyl)-1,2,4-oxadiazol-3-yl)pyridin-2-yl)-1H-pyrrolo[2,3-c]pyridin-2-yl)(morpholino)methanone]				59	87	
Cn1c(C(=O)N2CCNCC2)cc2cc(-c3cc(-c4noc(C(F)(F)F)n4)ccn3)ncc21 [Example 4, (1-Methyl-5-(4-(5-(trifluoromethyl)-1,2,4-oxadiazol-3-yl)pyridin-2-yl)-1H-pyrrolo[2,3-c]pyridin-2-yl)(piperazin-1-yl)methanone]	69	86	95			
Cn1c(C(=O)N2CC[C@H](O)C2)cc2cc(-c3cc(-c4noc(C(F)(F)F)n4)ccn3)ncc21 [Example 2h, (S)-(3-Hydroxypyrrolidin-1-yl)(1-methyl-5-(4-(5-(trifluoromethyl)-1,2,4-oxadiazol-3-yl)pyridin-2-yl)-1H-pyrrolo[2,3-c]pyridin-2-yl)methanone hydrochloride]	65	80	94			
COCCCn1nc(-c2cc(-c3noc(C(F)(F)F)n3)ccn2)c2ncccc21 [Example 1e, 3-(2-(1-(3-Methoxypropyl)-1H-pyrazolo[4,3-b]pyridin-3-yl)pyridin-4-yl)-5-(trifluoromethyl)-1,2,4-oxadiazole]	68	88	95			
COCCn1nc(-c2cc(-c3noc(C(F)(F)F)n3)ccn2)c2nccc(Cl)c21 [Example 5, 3-(2-(7-Chloro-1-(2-methoxyethyl)-1H-pyrazolo[4,3-b]pyridin-3-yl)pyridin-4-yl)-5-(trifluoromethyl)-1,2,4-oxadiazole]	61	82	94			
CC1(C)C2CCC1(CS(=O)(=O)O)C(=O)C2.Cn1c(C(=O)N2CC[C@H](O)C2)cc2cc(-c3cc(-c4noc(C(F)(F)F)n4)ccn3)ncc21 [Example 6, (S)-(3-Hydroxypyrrolidin-1-yl)(1-methyl-5-(4-(5-(trifluoromethyl)-1,2,4-oxadiazol-3-yl)pyridin-2-yl)-1H-pyrrolo[2,3-c]pyridin-2-yl)methanone (+) Camphorsulfonate Salt]				61	81	91
Cn1c(C(=O)N2CCOCC2)cc2cc(-c3cc(-c4noc(C(F)(F)F)n4)ccn3)ncc21 [Example 3, (1-Methyl-5-(4-(5-(trifluoromethyl)-1,2,4-oxadiazol-3-yl)pyridin-2yl)-1H-pyrrolo[2,3-c]pyridin-2-yl)(morpholino)methanone mesylate]	59	84	93			
CN1CCC(CN(C)C(=O)c2cc3cc(-c4cc(-c5noc(C(F)(F)F)n5)ccn4)ncc3n2C)CC1 [Example 1c, N,1-Dimethyl-N-((l-methylpiperidin-4-yl)methyl)-5-(4-(5-(trifluoromethyl)-1,2,4-oxadiazol-3-yl)pyridin-2-yl)-1H-pyrrolo[2,3-c]pyridine-2-carboxamide]	85	94	98			

More lines, main results first:

inhibition at 0.1 µM [%]	inhibition at 0.3 µM [%]	inhibition at 1 µM (1 μM test compound) [%]	SMILES	HDAC6 % inh @ 0.1 μM [%]	HDAC6 % inh @ 0.3 μM [%]	HDAC6 % inh @ 1 μM (1 μM test compound) [%]
64	86	96	C[C@H]1COCCN1C(=O)c1cc2cc(-c3cc(-c4noc(C(F)(F)F)n4)ccn3)ncc2n1C [Example 2d, (S)-(1-Methyl-5-(4-(5-(trifluoromethyl)-1,2,4-oxadiazol-3-yl)pyridin-2-yl)-1H-pyrrolo[2,3-c]pyridin-2-yl)(3-methylmorpholino)methanone hydrochloride]			
78	86	97	Cn1c(C(=O)N2CC[C@@H](O)C2)cc2cc(-c3cc(-c4noc(C(F)(F)F)n4)ccn3)ncc21 [Example 2g, (R)-(3-Hydroxypyrrolidin-1-yl)(1-methyl-5-(4-(5-(trifluoromethyl)-1,2,4-oxadiazol-3-yl)pyridin-2-yl)-1H-pyrrolo[2,3-c]pyridin-2-yl)methanone hydrochloride]			
71	91	97	COCCN(CCOC)C(=O)c1cc2cc(-c3cc(-c4noc(C(F)(F)F)n4)ccn3)ncc2n1C [Example 2c, N,N-Bis(2-methoxyethyl)-1-methyl-5-(4-(5-(trifluoromethyl)-1,2,4-oxadiazol-3-yl)pyridin-2-yl)-1H-pyrrolo[2,3-c]pyridine-2-carboxamide hydrochloride]			
66	89	97	COCCN(C)C(=O)c1cc2cc(-c3cc(-c4noc(C(F)(F)F)n4)ccn3)ncc2n1C [Example 2a, N-(2-Methoxyethyl)-N,1-dimethyl-5-(4-(5-(trifluoromethyl)-1,2,4-oxadiazol-3-yl)pyridin-2-yl)-1H-pyrrolo[2,3-c]pyridine-2-carboxamide hydrochloride]			
89	95	96	CCN(C)C(=O)c1cc2cc(-c3cc(-c4noc(C(F)(F)F)n4)ccn3)ncc2n1C [Example 2b, N-Ethyl-N,1-dimethyl-5-(4-(5-(trifluoromethyl)-1,2,4-oxadiazol-3-yl)pyridin-2-yl)-1H-pyrrolo[2,3-c]pyridine-2-carboxamide hydrochloride]			
78	92	97	Cn1c(C(=O)N2CCC(O)C2)cc2cc(-c3cc(-c4noc(C(F)(F)F)n4)ccn3)ncc21 (stereo not shown) [Example 2e, (3-Hydroxypyrrolidin-1-yl)(1-methyl-5-(4-(5-(trifluoromethyl)-1,2,4-oxadiazol-3-yl)pyridin-2-yl)-1H-pyrrolo[2,3-c]pyridin-2-yl)methanone hydrochloride]			
